Results from ChEMBL document CHEMBL2073897, “Major role of organic anion transporter 3 in the transport of indoxyl sulfate in the kidney” (Kidney Int, 2002).
Each block holds one molecule with its values, some of them ahead of it.

Key:
[1] = target: T1, Organic anion transporter 3 (OAT3) (Rattus norvegicus, UniProt Q9R1U7); assay: TP_TRANSPORTER: inhibition of Indoxyl sulfate uptake (indoxyl sulfate: 2 uM, CMPF: 1000 uM) in Xenopus laevis oocytes; type: functional, cell-based, Oocyte; set-up: scale not given: the % may be the effect or the level left; settings: probe indoxyl sulfate (2 uM), read-out: Activity
T1 sequence (Q9R1U7 whole entry): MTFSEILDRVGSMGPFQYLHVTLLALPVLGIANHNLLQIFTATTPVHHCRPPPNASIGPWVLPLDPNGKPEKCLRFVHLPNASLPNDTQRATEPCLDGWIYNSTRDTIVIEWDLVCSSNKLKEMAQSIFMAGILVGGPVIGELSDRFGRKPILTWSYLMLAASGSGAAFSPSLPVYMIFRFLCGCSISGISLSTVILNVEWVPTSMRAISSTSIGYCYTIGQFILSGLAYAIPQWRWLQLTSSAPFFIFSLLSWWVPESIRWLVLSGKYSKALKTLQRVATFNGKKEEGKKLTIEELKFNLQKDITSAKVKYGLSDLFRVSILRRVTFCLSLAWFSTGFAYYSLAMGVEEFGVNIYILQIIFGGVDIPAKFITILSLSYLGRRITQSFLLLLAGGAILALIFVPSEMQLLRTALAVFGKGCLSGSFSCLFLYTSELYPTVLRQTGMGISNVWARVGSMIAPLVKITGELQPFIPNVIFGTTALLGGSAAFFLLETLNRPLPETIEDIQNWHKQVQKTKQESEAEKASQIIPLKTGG

[2] = target: T1, Organic anion transporter 3 (OAT3); assay: TP_TRANSPORTER: inhibition of Indoxyl sulfate uptake (indoxyl sulfate: 2 uM, 4-Hydroxyphenylacetic acid: 1000 uM) in Xenopus laevis oocytes; type: functional, cell-based, Oocyte; set-up: scale not given: the % may be the effect or the level left; settings: probe indoxyl sulfate (2 uM), read-out: Activity
[3] = target: T2, Organic anion transporter 3 (Rattus norvegicus, UniProt Q9R1U7); assay: TP_TRANSPORTER: inhibition of Indoxyl sulfate uptake (indoxyl sulfate: 2 uM, Hippurate: 1000 uM) in Xenopus laevis oocytes; type: functional, cell-based; set-up: scale not given: the % may be the effect or the level left; settings: oocyte
T2 sequence (Q9R1U7 whole entry): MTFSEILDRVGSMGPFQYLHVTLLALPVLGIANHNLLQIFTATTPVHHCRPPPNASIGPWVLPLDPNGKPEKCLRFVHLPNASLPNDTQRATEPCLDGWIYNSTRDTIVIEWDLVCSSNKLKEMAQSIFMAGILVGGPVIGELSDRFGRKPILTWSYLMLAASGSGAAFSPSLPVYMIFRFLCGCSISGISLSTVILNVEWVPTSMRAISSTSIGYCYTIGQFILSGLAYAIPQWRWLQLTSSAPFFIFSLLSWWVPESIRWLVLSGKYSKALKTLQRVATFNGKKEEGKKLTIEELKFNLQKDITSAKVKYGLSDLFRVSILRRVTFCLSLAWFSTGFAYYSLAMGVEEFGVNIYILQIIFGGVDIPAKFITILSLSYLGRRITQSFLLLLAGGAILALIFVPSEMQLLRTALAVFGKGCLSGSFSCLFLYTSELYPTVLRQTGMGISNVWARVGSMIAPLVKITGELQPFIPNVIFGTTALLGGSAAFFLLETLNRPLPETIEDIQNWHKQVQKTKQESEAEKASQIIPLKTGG

[4] = target: T1, Organic anion transporter 3 (OAT3); assay: TP_TRANSPORTER: inhibition of Indoxyl sulfate uptake (indoxyl sulfate: 2 uM, Indoleacetic acid: 1000 uM) in Xenopus laevis oocytes; type: functional, cell-based, Oocyte; set-up: scale not given: the % may be the effect or the level left; settings: probe indoxyl sulfate (2 uM), read-out: Activity
[5] = target: T1, Organic anion transporter 3 (OAT3); assay: TP_TRANSPORTER: inhibition of Indoxyl sulfate uptake (indoxyl sulfate: 2 uM, 2-Hydroxycinnamic acid: 1000 uM) in Xenopus laevis oocytes; type: functional, cell-based, Oocyte; set-up: scale not given: the % may be the effect or the level left; settings: probe indoxyl sulfate (2 uM), read-out: Activity
[6] = target: T1, Organic anion transporter 3 (OAT3); assay: TP_TRANSPORTER: inhibition of Indoxyl sulfate uptake (indoxyl sulfate: 2 uM, 4-Hydroxybenzoic acid: 1000 uM) in Xenopus laevis oocytes; type: functional, cell-based, Oocyte; set-up: scale not given: the % may be the effect or the level left; settings: probe indoxyl sulfate (2 uM), read-out: Activity
[7] = substrate: O=S(=O)(O)Oc1c[nH]c2ccccc12; assay: TP_TRANSPORTER: uptake in Xenopus laevis oocytes; type: functional, cell-based, Oocyte

Molecule: CCCc1oc(CCC(=O)O)c(C(=O)O)c1C
activity at 1000 µM [1]: 8.38%

Molecule: O=C(O)CNC(=O)c1ccccc1 [HIPPURIC ACID]
Activity [3]: 24.6%

Molecule: CC(=O)Oc1c[nH]c2ccccc12 [INDOLE ACETATE]
activity at 1000 µM [4]: 51.2%

B1: Organic anion transporter 3 (Rattus norvegicus) (protein)
chain: MTFSEILDRVGSMGPFQYLHVTLLALPVLGIANHNLLQIFTATTPVHHCRPPPNASIGPWVLPLDPNGKPEKCLRFVHLPNASLPNDTQRATEPCLDGWIYNSTRDTIVIEWDLVCSSNKLKEMAQSIFMAGILVGGPVIGELSDRFGRKPILTWSYLMLAASGSGAAFSPSLPVYMIFRFLCGCSISGISLSTVILNVEWVPTSMRAISSTSIGYCYTIGQFILSGLAYAIPQWRWLQLTSSAPFFIFSLLSWWVPESIRWLVLSGKYSKALKTLQRVATFNGKKEEGKKLTIEELKFNLQKDITSAKVKYGLSDLFRVSILRRVTFCLSLAWFSTGFAYYSLAMGVEEFGVNIYILQIIFGGVDIPAKFITILSLSYLGRRITQSFLLLLAGGAILALIFVPSEMQLLRTALAVFGKGCLSGSFSCLFLYTSELYPTVLRQTGMGISNVWARVGSMIAPLVKITGELQPFIPNVIFGTTALLGGSAAFFLLETLNRPLPETIEDIQNWHKQVQKTKQESEAEKASQIIPLKTGG
Km [7]: 158 µM

Continued, values first:

activity at 1000 µM [2]: 29.7%
Molecule: O=C(O)Cc1ccc(O)cc1

activity at 1000 µM [5]: 39.5%
Molecule: O=C(O)/C=C/c1ccccc1O [O-COUMARIC ACID]

activity at 1000 µM [6]: 22.1%
Molecule: O=C(O)c1ccc(O)cc1 [PARABEN]
